Results as given in patent publication US6710048B2, “Pyrazine derivatives as modulators of tyrosine kinases” (Ortho-McNeil Pharmaceutical, Inc., priority 2000, dated 2004).

Assays:
Type in all cases: biochemical
[1] = target: CDK4 (cyclin dependent kinase 4) (Homo sapiens, UniProt P11802); experiment: CDK4 kinase selectivity assay; details: Table 4 kinase selectivity; 10 = approximate value; read-out: IC50, Assay 3 CDK4
Method: (§1) Assays to test compound inhibition of other kinases were preformed using methods that measure the amount of phosphorylation of a biotinylated peptide substrate. Biotinylated peptide substrates were selected from the literature as appropriate for the enzyme being evaluated. […] Assay conditions vary slightly for each protein kinase, for example, insulin receptor kinase requires 10 mM MnCl2 for activity and Calmodulin-dependent protein kinase requires calmodulin and 2 mM CaCl2. The reaction mixture was dispensed into the wells of a streptavidin coated Flashplate and 1 μl drug stock in 100% DMSO was added to a 100 μl reaction volume resulting in a final concentration of 1% DMSO in the reaction. Enzyme was diluted in 50 mM Tris-HCl pH=8.0, 0.1% BSA and added to each well. The reaction was incubated for one hour at 30° C. in the presence of compound. After one hour the reaction mix was aspirated from the plate and the plate was washed with PBS containing 100 mM EDTA. The plate was read on a scintillation counter to determine ^33P-γ-ATP incorporated into the immobilized peptide. Test compounds were assayed in duplicate at 8 concentrations [100 tM, 10 μM, 1 μM, 100 nM, 10 nM, 1 nM, 100 μM, 10 μM]. A maximum and minimum signal for the assay was determined on each plate. The IC50 was calculated from the dose response curve of the percent inhibition of the maximum signal in the assay according to the formula [max signal−background/test compound signal−background (100)=% inhibition] by graphing the percent inhibition against the log concentration of test compound. Known inhibitor compounds appropriate for the kinase being assayed were also included on each plate.
(§2) VEGF-R (vascular endothelial growth factor receptor-2) is a fusion protein containing a polyhistidine tag at the N-terminus followed by amino acids 786-1343 of the rat VEGF-R2 kinase domain (GenBank Accession #U93306). CDK1 (cyclin dependent kinase 1) is isolated from insect cells expressing both the human CDK1 catalytic subunit and its positive regulatory subunit cyclin B (New England Biolabs, Beverly, Mass., Cat. #6020). CDK4 (cyclin dependent kinase 4) contains amino acids 769 to 921 of the mouse […] protein found in the GST-retinoblastoma protein construct (Santa Cruz Biotechnology, Santa Cruz, Calif.; Cat. #SC-4112). Insulin Receptor Kinase consists of residues 941-1313 of the cytoplasmic domain of the beta-subunit of the human insulin receptor (BIOMOL, Plymouth Meeting, Pa., Cat. #SE-195). Protein Kinase A is the catalytic subunit of cAMP dependent protein kinase-A purified from bovine heart (Upstate Biotech, Lake Placid, N.Y., Cat#14-114). PKC (protein kinase-C) is the gamma or beta isoform of the human protein produced in insect cells (BIOMOL, Plymouth Meeting, Pa., Cat. #SE-143). […]

PKC-γ = target: T1, PKC-γ (Homo sapiens, UniProt P05129); experiment: PKC-γ kinase selectivity assay; details: Table 4 kinase selectivity; read-out: IC50, Assay 6 PKC-γ
T1 construct: purchased BIOMOL SE-143; host or cells: insect cells
Method: as §1
as §2, with “#SE-143). Casein Kinase 1 is a truncation at amino acid 318 of the C-terminal portion of the rat CK1 delta isoform produced in E.coli (New England Biolabs, Beverly, Mass., Cat. #6030). Casein Kinase 2 includes the alpha and beta subunits of the human CK2 protein produced in E.coli (New England Biolabs, Beverly, Mass., Cat. #6010). Calmodulin Kinase (calmodulin-dependent protein kinase 2) is a truncated version of the alpha subunit of the rat protein produced in insect cells (New England Biolabs, Beverly, Mass., Cat. #6060). Glycogen Synthase Kinase-3 is the beta isoform of the rabbit enzyme produced in E. coli (New England Biolabs, Beverly, Mass., Cat. #6040). MAP Kinase is the rat ERK-2 isoform containing a polyhistidine tag at the N-terminus produced in E. coli. and activated by phosphorylation with MEK1 prior to purification (BIOMOL, Plymouth Meeting, Pa., Cat. #SE-137). EGFR (epidermal growth factor receptor) is purified from human A431 cell membranes (Sigma, St. Louis, Mo., Cat.# E3641). PDGF-R (platelet derived growth factor receptor) is a fusion protein containing a polyhistidine tag at the N-terminus followed by nucleotides 1874-3507 of the human PDGF-R beta subunit kinase domain (Accession #M21616).” for “#SE-143).”

PKC-β2 = target: T2, PKC-β2 (Homo sapiens, UniProt P05771); experiment: PKC-β2 kinase selectivity assay; details: Table 4 kinase selectivity; read-out: IC50, Assay 7 PKC-β2
T2 construct: purchased BIOMOL SE-143; host or cells: insect cells
Method: as §1
as §2, with “#SE-143). Casein Kinase 1 is a truncation at amino acid 318 of the C-terminal portion of the rat CK1 delta isoform produced in E.coli (New England Biolabs, Beverly, Mass., Cat. #6030). Casein Kinase 2 includes the alpha and beta subunits of the human CK2 protein produced in E.coli (New England Biolabs, Beverly, Mass., Cat. #6010). Calmodulin Kinase (calmodulin-dependent protein kinase 2) is a truncated version of the alpha subunit of the rat protein produced in insect cells (New England Biolabs, Beverly, Mass., Cat. #6060). Glycogen Synthase Kinase-3 is the beta isoform of the rabbit enzyme produced in E. coli (New England Biolabs, Beverly, Mass., Cat. #6040). MAP Kinase is the rat ERK-2 isoform containing a polyhistidine tag at the N-terminus produced in E. coli. and activated by phosphorylation with MEK1 prior to purification (BIOMOL, Plymouth Meeting, Pa., Cat. #SE-137). EGFR (epidermal growth factor receptor) is purified from human A431 cell membranes (Sigma, St. Louis, Mo., Cat.# E3641). PDGF-R (platelet derived growth factor receptor) is a fusion protein containing a polyhistidine tag at the N-terminus followed by nucleotides 1874-3507 of the human PDGF-R beta subunit kinase domain (Accession #M21616).” for “#SE-143).”

Casein Kinase 1 = target: T3, Casein Kinase 1 (Rattus norvegicus, UniProt Q06486); experiment: Casein Kinase 1 selectivity assay; details: Table 4 kinase selectivity; read-out: IC50, Assay 8 Casein Kinase 1
T3 construct: a truncation at amino acid 318 of the C-terminal portion of the rat CK1 delta isoform produced in E.coli; purchased New England Biolabs 6030; host or cells: E. coli
T3 sequence (Q06486 1-317 limits assumed): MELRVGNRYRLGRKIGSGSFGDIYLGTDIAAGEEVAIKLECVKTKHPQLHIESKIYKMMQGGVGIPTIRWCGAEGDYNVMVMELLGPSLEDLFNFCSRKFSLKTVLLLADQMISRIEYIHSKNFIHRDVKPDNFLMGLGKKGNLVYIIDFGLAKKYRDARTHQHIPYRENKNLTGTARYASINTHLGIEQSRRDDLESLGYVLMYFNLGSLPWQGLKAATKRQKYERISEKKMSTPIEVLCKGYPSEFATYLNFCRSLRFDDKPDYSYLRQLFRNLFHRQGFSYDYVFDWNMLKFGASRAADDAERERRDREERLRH
Method: as §1
as §2, with “#SE-143). Casein Kinase 1 is a truncation at amino acid 318 of the C-terminal portion of the rat CK1 delta isoform produced in E.coli (New England Biolabs, Beverly, Mass., Cat. #6030). Casein Kinase 2 includes the alpha and beta subunits of the human CK2 protein produced in E.coli (New England Biolabs, Beverly, Mass., Cat. #6010). Calmodulin Kinase (calmodulin-dependent protein kinase 2) is a truncated version of the alpha subunit of the rat protein produced in insect cells (New England Biolabs, Beverly, Mass., Cat. #6060). Glycogen Synthase Kinase-3 is the beta isoform of the rabbit enzyme produced in E. coli (New England Biolabs, Beverly, Mass., Cat. #6040). MAP Kinase is the rat ERK-2 isoform containing a polyhistidine tag at the N-terminus produced in E. coli. and activated by phosphorylation with MEK1 prior to purification (BIOMOL, Plymouth Meeting, Pa., Cat. #SE-137). EGFR (epidermal growth factor receptor) is purified from human A431 cell membranes (Sigma, St. Louis, Mo., Cat.# E3641). PDGF-R (platelet derived growth factor receptor) is a fusion protein containing a polyhistidine tag at the N-terminus followed by nucleotides 1874-3507 of the human PDGF-R beta subunit kinase domain (Accession #M21616).” for “#SE-143).”

Casein Kinase 2 = target: T4, Casein Kinase 2 (Homo sapiens, UniProt P68400); experiment: Casein Kinase 2 selectivity assay; details: Table 4 kinase selectivity; 10 = approximate value; read-out: IC50, Assay 9 Casein Kinase 2
T4 construct: purchased New England Biolabs 6010; host or cells: E. coli
Method: as §1
as §2, with “#SE-143). Casein Kinase 1 is a truncation at amino acid 318 of the C-terminal portion of the rat CK1 delta isoform produced in E.coli (New England Biolabs, Beverly, Mass., Cat. #6030). Casein Kinase 2 includes the alpha and beta subunits of the human CK2 protein produced in E.coli (New England Biolabs, Beverly, Mass., Cat. #6010). Calmodulin Kinase (calmodulin-dependent protein kinase 2) is a truncated version of the alpha subunit of the rat protein produced in insect cells (New England Biolabs, Beverly, Mass., Cat. #6060). Glycogen Synthase Kinase-3 is the beta isoform of the rabbit enzyme produced in E. coli (New England Biolabs, Beverly, Mass., Cat. #6040). MAP Kinase is the rat ERK-2 isoform containing a polyhistidine tag at the N-terminus produced in E. coli. and activated by phosphorylation with MEK1 prior to purification (BIOMOL, Plymouth Meeting, Pa., Cat. #SE-137). EGFR (epidermal growth factor receptor) is purified from human A431 cell membranes (Sigma, St. Louis, Mo., Cat.# E3641). PDGF-R (platelet derived growth factor receptor) is a fusion protein containing a polyhistidine tag at the N-terminus followed by nucleotides 1874-3507 of the human PDGF-R beta subunit kinase domain (Accession #M21616).” for “#SE-143).”

MAP Kinase ERK-2 = target: T5, MAP Kinase ERK-2 (Rattus norvegicus, UniProt P63086); experiment: MAP Kinase ERK-2 selectivity assay; details: Table 4 kinase selectivity; read-out: IC50, Assay 12 MAP Kinase ERK-2
T5 construct: polyhistidine (N); purchased BIOMOL SE-137; host or cells: E. coli
Method: as §1
as §2, with “#SE-143). Casein Kinase 1 is a truncation at amino acid 318 of the C-terminal portion of the rat CK1 delta isoform produced in E.coli (New England Biolabs, Beverly, Mass., Cat. #6030). Casein Kinase 2 includes the alpha and beta subunits of the human CK2 protein produced in E.coli (New England Biolabs, Beverly, Mass., Cat. #6010). Calmodulin Kinase (calmodulin-dependent protein kinase 2) is a truncated version of the alpha subunit of the rat protein produced in insect cells (New England Biolabs, Beverly, Mass., Cat. #6060). Glycogen Synthase Kinase-3 is the beta isoform of the rabbit enzyme produced in E. coli (New England Biolabs, Beverly, Mass., Cat. #6040). MAP Kinase is the rat ERK-2 isoform containing a polyhistidine tag at the N-terminus produced in E. coli. and activated by phosphorylation with MEK1 prior to purification (BIOMOL, Plymouth Meeting, Pa., Cat. #SE-137). EGFR (epidermal growth factor receptor) is purified from human A431 cell membranes (Sigma, St. Louis, Mo., Cat.# E3641). PDGF-R (platelet derived growth factor receptor) is a fusion protein containing a polyhistidine tag at the N-terminus followed by nucleotides 1874-3507 of the human PDGF-R beta subunit kinase domain (Accession #M21616).” for “#SE-143).”

CDK4 (cyclin dependent kinase 4), sequence (P11802 whole entry, species assumed): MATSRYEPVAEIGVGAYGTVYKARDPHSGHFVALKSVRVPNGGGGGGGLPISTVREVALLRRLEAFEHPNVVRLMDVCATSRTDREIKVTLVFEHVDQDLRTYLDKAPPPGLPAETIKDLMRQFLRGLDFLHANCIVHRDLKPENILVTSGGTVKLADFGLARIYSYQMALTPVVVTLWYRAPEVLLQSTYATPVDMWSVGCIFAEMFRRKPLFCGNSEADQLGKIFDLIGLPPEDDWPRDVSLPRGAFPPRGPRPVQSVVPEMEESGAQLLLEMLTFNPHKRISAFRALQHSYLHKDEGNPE
CDK4 (cyclin dependent kinase 4), sequence (P24385 whole entry partner, species assumed): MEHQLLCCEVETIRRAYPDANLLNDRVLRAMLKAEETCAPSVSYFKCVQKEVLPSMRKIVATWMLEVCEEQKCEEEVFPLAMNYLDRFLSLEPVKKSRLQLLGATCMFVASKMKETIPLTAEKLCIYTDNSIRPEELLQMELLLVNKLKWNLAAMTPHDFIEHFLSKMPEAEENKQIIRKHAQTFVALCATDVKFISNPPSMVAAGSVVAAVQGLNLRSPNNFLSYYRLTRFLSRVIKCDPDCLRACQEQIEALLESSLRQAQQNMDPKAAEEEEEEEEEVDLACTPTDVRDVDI
T2 sequence (P05771 1-673 isoform P05771-2): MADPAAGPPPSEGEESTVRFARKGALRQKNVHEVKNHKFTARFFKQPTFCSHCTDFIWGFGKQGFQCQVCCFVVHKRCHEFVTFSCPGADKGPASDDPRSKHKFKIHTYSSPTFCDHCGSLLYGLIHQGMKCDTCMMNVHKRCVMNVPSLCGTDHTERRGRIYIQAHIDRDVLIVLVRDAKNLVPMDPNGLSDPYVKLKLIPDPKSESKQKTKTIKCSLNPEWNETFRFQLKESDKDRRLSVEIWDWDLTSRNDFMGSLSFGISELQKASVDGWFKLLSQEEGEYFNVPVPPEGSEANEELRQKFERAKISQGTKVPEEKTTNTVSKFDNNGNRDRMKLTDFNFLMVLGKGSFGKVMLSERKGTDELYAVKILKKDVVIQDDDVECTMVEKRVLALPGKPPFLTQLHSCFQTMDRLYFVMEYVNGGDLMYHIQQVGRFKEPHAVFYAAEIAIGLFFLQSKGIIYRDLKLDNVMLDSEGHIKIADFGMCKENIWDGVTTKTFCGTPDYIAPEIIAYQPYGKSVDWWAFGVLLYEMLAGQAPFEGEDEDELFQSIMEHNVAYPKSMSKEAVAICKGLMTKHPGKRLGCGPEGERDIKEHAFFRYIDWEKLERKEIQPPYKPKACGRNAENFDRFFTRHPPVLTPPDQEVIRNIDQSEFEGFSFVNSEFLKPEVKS
T4 sequence (P68400 whole entry): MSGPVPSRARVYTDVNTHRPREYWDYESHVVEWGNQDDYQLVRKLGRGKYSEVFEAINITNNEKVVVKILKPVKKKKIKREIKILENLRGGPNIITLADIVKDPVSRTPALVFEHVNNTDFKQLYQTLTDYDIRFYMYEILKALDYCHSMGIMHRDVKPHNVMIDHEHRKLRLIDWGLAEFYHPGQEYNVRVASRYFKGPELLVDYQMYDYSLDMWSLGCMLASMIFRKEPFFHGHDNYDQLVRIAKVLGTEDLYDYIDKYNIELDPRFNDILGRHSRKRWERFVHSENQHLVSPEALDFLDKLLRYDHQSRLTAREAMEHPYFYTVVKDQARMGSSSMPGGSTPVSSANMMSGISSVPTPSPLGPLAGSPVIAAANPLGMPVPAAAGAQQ
T4 sequence (P67870 whole entry partner): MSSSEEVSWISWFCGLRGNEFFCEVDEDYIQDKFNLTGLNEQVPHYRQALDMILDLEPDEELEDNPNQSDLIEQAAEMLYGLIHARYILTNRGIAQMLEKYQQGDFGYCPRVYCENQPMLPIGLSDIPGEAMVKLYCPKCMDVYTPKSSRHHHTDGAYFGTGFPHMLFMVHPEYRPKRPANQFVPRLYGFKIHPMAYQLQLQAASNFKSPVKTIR
T5 sequence (P63086 whole entry): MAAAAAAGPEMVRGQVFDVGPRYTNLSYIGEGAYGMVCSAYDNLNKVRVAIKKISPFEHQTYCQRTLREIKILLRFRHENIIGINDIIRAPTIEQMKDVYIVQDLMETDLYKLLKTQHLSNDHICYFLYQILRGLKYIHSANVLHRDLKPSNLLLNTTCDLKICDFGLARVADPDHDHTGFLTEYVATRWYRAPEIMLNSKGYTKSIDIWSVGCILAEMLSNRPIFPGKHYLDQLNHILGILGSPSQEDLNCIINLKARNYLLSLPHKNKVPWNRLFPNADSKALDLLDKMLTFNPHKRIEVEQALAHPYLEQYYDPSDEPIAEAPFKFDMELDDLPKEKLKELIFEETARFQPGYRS

Row | IC50 [1] [µM] | IC50 (PKC-γ) [µM] | IC50 (PKC-β2) [µM] | IC50 (Casein Kinase 1) [µM] | IC50 (Casein Kinase 2) [µM] | IC50 (MAP Kinase ERK-2) [µM] | SMILES
1 | ~10 | > 100 | > 100 | > 100 | > 100 | > 100 | OCCCNc1cncc(-c2cncc(Nc3cccc(Cl)c3)n2)c1 [Cmd 4]
2 | > 10 | > 100 | > 100 | – | > 100 | > 100 | OCCCCNc1cncc(-c2cncc(Nc3cccc(Cl)c3)n2)c1 [Cmd 32]
3 | – | – | – | > 100 | > 100 | > 100 | Clc1cccc(Nc2cncc(-c3cncc(NCCCc4cccnc4)c3)n2)c1 [Cmd 72]
4 | – | – | – | 5.6 | 8.1 | > 100 | Clc1cccc(Nc2cncc(-c3cncc(NCCCn4cccn4)c3)n2)c1 [Cmd 75]
5 | – | – | – | 6.5 | 7.2 | > 100 | Clc1cccc(Nc2cncc(-c3cncc(NCCCn4cncn4)c3)n2)c1 [Cmd 76]

The next lines start with the compound.

Row | SMILES | IC50 [1] [µM] | IC50 (PKC-γ) [µM] | IC50 (PKC-β2) [µM] | IC50 (Casein Kinase 1) [µM] | IC50 (Casein Kinase 2) [µM] | IC50 (MAP Kinase ERK-2) [µM]
6 | CN(C)CCNc1cncc(-c2cncc(Nc3cccc(Cl)c3)n2)c1 [Cmd 33, N′-[5-[6-[(3-chlorophenyl)amino]pyrazinyl]-3-pyridinyl]-N^2,N^2-dimethyl-1,2-ethanediamine] | ~10 | 3.96 | > 100 | > 100 | > 100 | > 100
7 | CN(C)CCCNc1cncc(-c2cncc(Nc3cccc(Cl)c3)n2)c1 [Cmd 35] | ~10 | 14.5 | > 100 | > 100 | > 100 | > 100
8 | O=C(NCCCO)c1cncc(-c2cncc(Nc3cccc(Cl)c3)n2)c1 [Cmd 39] | – | > 100 | > 100 | > 100 | ~10 | > 100
9 | Clc1cccc(Nc2cncc(-c3cncc(NCCCc4ccncc4)c3)n2)c1 [Cmd 71] | – | – | – | > 100 | > 100 | > 100
10 | Clc1cccc(Nc2cncc(-c3cncc(NCCCN4CCCCC4)c3)n2)c1 [Cmd 73] | – | 1.36 | 1.75 | 5.03 | 6.35 | > 100
